Experimental data published in patent publication US9889115B2, “Fitness assay and associated methods” (priority 1998, dated 2018).

What was measured:
Experiment in all cases: continuous fluorogenic HIV protease assay
Format in all cases: biochemical
[1] = molecular target: T1, HIV-1 protease V32I/L33F/K45I/F53L/A71V/I84V (Human immunodeficiency virus type 1 group M subtype B, UniProt P04585, A559V/F541L/I572V/K533I/L521F/V520I); details: V32I/L33F/K45I/F53L/A71V/I84V relative to WT
T1 construct: the proteases of wild-type HIV-1 (WT) and various mutant enzymes
Method: (§1) This example describes the protocol for the sensitive continuous fluorogenic assay for HIV protease of the present invention and its application. […] The inhibition constant for wild-type HIV-1, Kimnt/Kiwt ratio, and vitality were measured.
(§2) The reaction was initiated by the addition of 5 μl of substrate stock solution in water. […] The initial rate of hydrolysis was calculated by second degree polynomial fit using SLM AB2 2.0 operating software.
(§3) For inhibition studies, inhibitors were prepared as stock solutions at different concentrations in dimethylsulfoxide. […] The reaction was initiated by the addition of 5 μl of substrate stock solution in water. For data analysis, the mathematical model for tight-binding inhibitors was used.

[2] = molecular target: T2, HIV-1 protease V32I/I84V (Human immunodeficiency virus type 1 group M subtype B, UniProt P04585, I572V/V520I); details: V32I/I84V relative to WT
T2 construct: the proteases of wild-type HIV-1 (WT) and various mutant enzymes
Method: as §1, §2, §3

[3] = tested on: HIV-1 protease V32I; details: V32I relative to WT
Method: as §1, §2, §3

[4] = tested on: HIV-1 protease 20R/36I/54V/71V/82T; details: 20R/36I/54V/71V/82T relative to WT
Method: as §1, §2, §3

[5] = tested on: HIV-1 protease V82F/I84V; details: V82F/I84V relative to WT (Table 1)
Method: as §1, §2, §3

[6] = tested on: HIV-1 protease M46F/V82A; details: M46F/V82A relative to WT
Method: as §1, §2, §3

[7] = molecular target: T3, HIV-1 protease V32I/K45I/F53L/A71V/I84V/L89M (Human immunodeficiency virus type 1 group M subtype B, UniProt P04585, A559V/F541L/I572V/K533I/L577M/V520I); details: V32I/K45I/F53L/A71V/I84V/L89M relative to WT
T3 construct: the proteases of wild-type HIV-1 (WT) and various mutant enzymes
Method: as §1, §2, §3

[8] = molecular target: T4, wild-type HIV-1 (WT) protease (Human immunodeficiency virus type 1 group M subtype B, UniProt P04585)
T4 construct: the proteases of wild-type HIV-1 (WT)
Method: as §1, §2, §3

[9] = tested on: HIV-1 protease I84V; details: I84V relative to WT
Method: as §1, §2, §3

[10] = molecular target: T5, HIV-1 protease D30N (Human immunodeficiency virus type 1 group M subtype B, UniProt P04585, D518N); details: D30N relative to WT
T5 construct: the proteases of wild-type HIV-1 (WT) and various mutant enzymes
Method: as §1, §2, §3

[11] = molecular target: T6, HIV-1 protease G48V/L90M (Human immunodeficiency virus type 1 group M subtype B, UniProt P04585, G536V/L578M); details: G48V/L90M relative to WT
T6 construct: the proteases of wild-type HIV-1 (WT) and various mutant enzymes
Method: as §1, §2, §3

[12] = molecular target: HIV-1 protease V82T/I84V (Human immunodeficiency virus type 1 group M subtype B, UniProt P04585, I572V/V570T); details: V82T/I84V relative to WT
Method: as §1, §2, §3

In the case of `COc1ccc(S(=O)(=O)N(CC(C)C)C[C@@H](O)[C@H](Cc2ccccc2)NC(=O)O[C@H]2CO[C@H]3OCC[C@H]32)cc1` [Compound 32], the “Biochemical Fitness” value [1] is reported as 0.1, the “Biochemical Fitness” value [2] is reported as 0.7 and the “Biochemical Fitness” value [3] is reported as 0.5. The “Biochemical Fitness” value [4] was 0.1, the “Biochemical Fitness” value [5] was 0.1 and the “Biochemical Fitness” value [6] was 0.1. For the same compound, the “Biochemical Fitness” value [7] was 0.1, the “Biochemical Fitness” value [8] was 1 and the “Biochemical Fitness” value [9] was 1. The “Biochemical Fitness” value [10] was 0.3, the “Biochemical Fitness” value [11] was 0.1 and the “Biochemical Fitness” value [12] was 0.1.
